{"source": "patent US12590296B2", "about": "“Method of culturing immortalized human hepatic progenitors or cells” (INSERM (INSTITUT NATIONAL DE LA SANTÉ ET DE LA RECHERCHE …, priority 2019, dated 2026)", "key": {"[1]": {"system": "LX-2 cells", "assay": "SHG microscopy of fibrillar collagen, LX-2 cells alone in 3D GelMa", "type": "cell-based, human", "settings": "LX-2 cells cultured alone in 3D GelMa, after induction", "protocol": "(§1) TPEF/SHG microscopy imaging was performed on mRIC facility of Biosit, University of Rennes1 (France). The SHG imaging system is composed of a confocal TCS SP5 scanning head (Leica Microsystems, Mannheim, Germany) mounted on a DMIRE2 inverted microscope (Leica Microsystems) and equipped with a MAITAI femtosecond laser (Spectra Physics, Santa Clara, CA). 60× water immersion objective (Olympus LUMFL 60 W×1.1NA) was used for applying an 820 nm excitation to the sample. The SHG signal was collected in the forward direction using the condenser (S1, NA ¼ 0.9-1.4; Leica Microsystems), and the TPEF was epi-collected in the backward direction. IRSP 715 bandpass and 410 nm infrared (IR) filters (10 nm full width at half-maximum, FWHM) were placed before the photomultiplier tube. The image processing was performed with ImageJ software (National Institutes of Health).\n(§2) SHG microscopy was used to visualize fibrillar collagen, mostly collagen-1 and -3. Briefly, SHG relies on the nonlinear optical interactions with […] fibrillar structures, such as collagen type I, allowing their detection and quantification in 3D tissues. […] For example, such culture is not suitable for the study of liver fibrosis."}, "[2]": {"system": "HepaRG cells in coculture with LX-2 cells and HUVECs (CoC)", "assay": "LDH release in coculture (CoC)", "type": "cell-based", "settings": "5 ng/mL every 48 h for 7 days", "protocol": "(§3) Cell viability was assessed by using the WST-1 (water soluble tetrazolium-1) proliferation assay on cell laden 3D constructs at different days or times of culture. Briefly, the cell laden 3D constructs were treated with 100 μL of WST-1 reagent and incubated 30 min at 37° C. Absorbance at 440 nm was read in a microplate reader (SpectrostarNano, BMG labtech, Champigny s/Marne, FR) and the values were converted into percentage of absorbance by comparison with controls assessed at day 0 or time 0. Measurement of lactate dehydrogenase (LDH) was performed on supernatants with the LDH-Glo™ Cytotoxicity Assay (Promega) by following manufacturer's instructions."}, "[3]": {"system": "HepaRG cells in coculture with LX-2 cells and HUVECs (CoC)", "assay": "mRNA expression (RT-qPCR) in HepaRG + LX-2 + HUVECs coculture (CoC) in 3D GelMa", "type": "cell-based, human", "protocol": "(§4) After 1, 2 and 4 week(s) of culture, 3D constructs comprising 3D cell structures were harvested, washed twice in PBS and total ribonucleic acid (RNA) was extracted using TRIzol™ reagent. The concentration of total RNA was measured with a NanoDrop ND-1000 (NanoDrop Technologies). Complementary deoxyribonucleic acid (cDNA) was synthetized using the High Capacity cDNA reverse transcriptase kit (Applied Biosystems Foster City, CA, USA), and real-time polymerase chain reaction (PCR) was performed using the Power SYBR Green PCR master mix (Applied Biosystems Foster City, CA, USA). Basic local alignment search tool (BLAST) was used to design primer sequences which were purchased from Eurogentec (Searing, BE). The expression levels of the target genes were normalized to those of GAPDH and determined by the ΔΔCt method. Final results were expressed as the n-fold difference in target gene expression in samples when compared with the mean expression values of the target gene for controls: either non-differentiated HepaRG (referred to as 2D) or HepaRG differentiated in standard 2D culture conditions (referred to as 2D DMSO). All results are presented as mean±SD of at least n=3 experiments.\n(§5) For coculture constructs, the bioprinted 3D structure comprising HepaRG cells and LX-2 cells was cultured during a week, before being put in a low attachment plate containing 1×10^6 HUVECs per mL of medium.\nThe mRNA expression of hepatic genes (ALB, ALDOB, PPARA and SERPINA1) and of myofibroblastic transition genes and extracellular matrix remodeling genes (ACTA2, ADAMTS12, COL1A1, COL3A1, MMP2, MMP9 and TIMP1) was assessed at day 21 (i) in HepaRG alone in 3D GelMa culture, (ii) in HepaRG in 3D GelMa culture with LX-2 cells and HUVECs (CoC) and (iii) in HepaRG in 3D GelMa culture with LX-2 cells and HUVECs (CoC) activated with TGFβ-1 treatment for 7 days (FIGS. 16A-K). […] The albumin secretion of the HepaRG cells in coculture with the LX-2 cells and HUVECs (CoC) was also assessed and compared to that of HepaRG cells cultured alone (HepaRG) and bioprinted in GelMa matrix under the same conditions."}, "[4]": {"system": "LX-2 cells", "assay": "mRNA expression (RT-qPCR) in LX-2 cells in 3D GelMa culture", "type": "cell-based, human", "settings": "5 ng/mL every 48 h from day 2", "protocol": "as §4, with “Basic local alignment search tool (BLAST) was used to design primer sequences which were purchased from Eurogentec (Searing, BE).” left out, “All results are presented as mean±SD of at least n=3 experiments.” left out\nFirst, the culture of LX-2 cells alone in 3D GelMa culture was assessed, with or without treatment with TGFβ-1, a classical pro-fibrotic cytokine (Czaja et al., J Cell Biol. 1989 June; 108(6):2477-82). […] Then, the mRNA expression of ACTA2, ADAMTS12, LPL, COL1A1, MMP2, TGFβ-1 and TIMP1 was assessed in LX-2 cells in 3D GelMa culture, stimulated or not by TGFβ-1 (FIGS. 14A-G, respectively). […]"}, "[5]": {"system": "HepaRG cells", "assay": "SHG microscopy of fibrillar collagen, HepaRG cells alone in 3D GelMa", "type": "cell-based, human", "settings": "HepaRG cells cultured alone in 3D GelMa, with or without treatment", "protocol": "as §1, §2"}, "[6]": {"system": "HepaRG cells in coculture with LX-2 cells and HUVECs (CoC)", "assay": "Albumin, urea and pro-collagen 1a1 secretion in coculture (CoC)", "type": "cell-based, human", "protocol": "(§6) Medium samples were taken for the determination of albumin and urea content every 48 h. Secreted albumin and proCol1a1 (pro-collagen 1 alpha 1) were quantified using the human serum albumin Duoset Enzyme Linked Immunosorbent Assay (ELISA) kit (R&D systems, Minneapolis, MN, USA) and the human pro-Col1a1 Duoset Enzyme Linked Immunosorbent Assay kits (R&D systems, Minneapolis, MN, USA), according to manufacturer's instructions. Quantification was performed by measuring absorbance at 450 nm using a microplate reader (SpectrostarNano, BMG labtech, Champigny s/Marne, FR). Urea secretion in the medium was measured using a ChromaDazzle Urea Assay kit (AssayGenie, Dublin, IR) according to the manufacturer's protocol, using medium as standard and reading the absorbance at 420 nm (SpectrostarNano, BMG labtech, Champigny s/Marne, FR)\nas §5"}, "[7]": {"system": "HepaRG or HepaRG+HUVECs", "assay": "Pro-collagen 1a1 secretion (ELISA) in HepaRG or HepaRG+HUVECs", "type": "cell-based, human", "settings": "day 21", "protocol": "as §6"}, "[8]": {"system": "HuH-7 cells", "assay": "Cleaved caspase 3 (apoptosis) in HuH-7 cells in 3D GelMa culture", "type": "cell-based, human", "settings": "treatment at day 14, data not shown", "protocol": "Cell laden 3D constructs were fixed in 4% formaldehyde, washed 3 times in PBS and stored at 4° C. until use or immediately suspended in a 0.12 M phosphate buffer containing 10% w/v saccharose and incubated overnight. They were embedded in a protective matrix composed of gelatin 7.5% w/v and 10% w/v saccharose, then frozen in isopentane and cryosectioned at a thickness of 7 μm. Slides were stained on the Discovery Automated IHC stainer using the discovery Rhodamin kit (Ventana Mediacl systems, Tucson, AZ, USA). The concentrations and references of the primary antibodies that were used can be found in Table 1 below. After rinsing, signal enhancement was performed using the Ventana Rhodamin kit and secondary antibody anti-rabbit HRP (760-4311, Roche) or secondary antibody anti-mouse HRP (760-4310, Roche) for 16 min of incubation. After removal from the instrument, slides were manually rinsed, stained when required with albumin antibody then a secondary antibody for albumin detection (Donkey anti goat 488), and mounted with Dapi Fluoromount-G."}, "[9]": {"system": "HuH-7 cells", "type": "cell-based, human", "protocol": "as §3"}, "[10]": {"type": "physicochemical", "protocol": "The physical properties of different methacrylated gelatin matrices (GelMa matrices) were analyzed by assessing the polymerization and bioprinting properties of the matrices as a function of the GelMa concentration, the photoinitiator LAP concentration and the illumination time at 405 nm (FIG. 1). As shown on FIG. 1A, at 20° C. a concentration of GelMa of 2.5% was not sufficient to ensure a proper polymerization of the matrix and subsequently, an optimal viscosity for the bioprinting process. As shown on FIG. 1B, a minimum concentration of LAP (i.e., 0.1% (w/v)) and an optimized illumination time (i.e., 60 seconds) were defined to reduce the phototoxicity and the production of excess free radicals while maintaining sufficient structural integrity of the printed GelMa for 28 days at 37° C. As shown on FIGS. 1C-D, weight loss of the matrices was assessed as a function of the photoinitiator LAP concentration (either 0.1% (w/v) on FIG. 1C or 0.3% (w/v) on FIG. 1D) and the illumination time at 405 nm. A rapid decrease of the matrix weight, of up to about 40%, was observed 5 hours after the polymerization process (FIG. 1C-D). Then, a constant weight for at least 28 days was observed, indicating a good stability of the matrix in the culture medium at 37° C. (FIGS. 1C-D). […]"}, "[11]": {"system": "HepaRG cells", "settings": "HepaRG cells in 3D GelMa culture, in the presence of U126 (16.4% in its absence); data not shown"}, "[12]": {"settings": "CoC, day 21, 5 ng/mL every 48 h for 7 days"}}, "note": "“Also recorded” adds a separate entry of the source."}
{"molecule": "TGFβ-1: a classical pro-fibrotic cytokine", "values": [{"measurement": "collagen fibrils (SHG microscopy)", "setting": "[1]", "result": "Very few collagen fibrils or no collagen fibrils at all; also recorded: no collagen fibrils were ever observed"}, {"measurement": "release of LDH (a cell death marker) in the medium", "setting": "[2]", "result": "no specific release"}, {"measurement": "expression of genes involved in ECM homeostasis (ACTA2, ADAMTS12, COL1A1, COL3A1, MMP2, MMP9 and TIMP1)", "setting": "[3]; [12]", "result": "increase"}, {"measurement": "hepatic gene mRNA expression (ALB, ALDOB, PPARA and SERPINA1)", "setting": "[3]; [12]", "result": "decrease"}, {"measurement": "COL1A1 expression", "setting": "[3]; HepaRG alone, HepaRG+HUVECs and CoC (all three conditions)", "result": "significant increase"}, {"measurement": "mRNA expression of ACTA2, COL1A1, MMP2 and TIMP1", "setting": "[4]", "result": "clearly increased in a time-dependent manner"}, {"measurement": "collagen deposition (SHG microscopy)", "setting": "[5]", "result": "No collagen deposition"}, {"measurement": "albumin secretion", "setting": "[6]; CoC, 5 ng/mL every 48 h for 7 days", "result": "decrease"}, {"measurement": "urea secretion", "setting": "[6]; CoC, over the 21 days of culture, with or without treatment, data not shown", "result": "remained stable"}, {"measurement": "pro-collagen 1a1 secretion", "setting": "[6]; HepaRG+LX-2+HUVECs (CoC), day 21", "result": "no significant increase"}, {"measurement": "pro-collagen 1a1 secretion", "setting": "[7]", "result": "significatively induces its secretion"}]}
{"molecule": "N.N.[Cl][Pt][Cl]", "note": "[cisplatin]", "values": [{"measurement": "response of the cells to an apoptotic inducer (caspase 3)", "setting": "[8]", "result": "responded well"}]}
{"molecule": "methacrylated gelatin [GelMa]", "values": [{"measurement": "HuH-7 cell viability (WST-1 proliferation assay)", "setting": "[9]", "result": "no decrease"}, {"measurement": "constant weight (stability of the matrix in the culture medium)", "setting": "[10]", "result": "at least 28 days"}]}
{"molecule": "N#CC(=C(/N)Sc1ccccc1N)/C(C#N)=C(/N)Sc1ccccc1N", "note": "[U126]", "values": [{"measurement": "EdU positive cells", "setting": "[11]", "result": 0.9, "unit": "%"}]}
